The text below walks through data of ChEMBL document CHEMBL1123108 (J Med Chem, 1985).

Data set [1] has as its target T1, Aromatase (Homo sapiens, UniProt P11511).
T1 sequence (P11511 whole entry): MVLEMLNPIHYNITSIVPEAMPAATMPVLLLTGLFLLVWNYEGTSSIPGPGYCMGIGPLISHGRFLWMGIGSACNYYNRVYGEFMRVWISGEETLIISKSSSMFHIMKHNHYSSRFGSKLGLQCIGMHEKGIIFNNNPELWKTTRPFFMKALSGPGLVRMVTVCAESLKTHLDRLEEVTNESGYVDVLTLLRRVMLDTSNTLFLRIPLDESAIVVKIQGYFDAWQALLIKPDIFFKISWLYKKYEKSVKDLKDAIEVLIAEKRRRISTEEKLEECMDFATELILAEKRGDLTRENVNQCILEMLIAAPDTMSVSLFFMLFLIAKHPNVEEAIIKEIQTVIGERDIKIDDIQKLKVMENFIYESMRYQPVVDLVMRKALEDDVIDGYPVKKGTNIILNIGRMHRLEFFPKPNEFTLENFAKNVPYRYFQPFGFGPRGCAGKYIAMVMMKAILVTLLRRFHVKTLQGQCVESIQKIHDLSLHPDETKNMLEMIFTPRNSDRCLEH
Kind of data set: Inhibition of Cytochrome P450 19A1 at 20 ug/mL.

Data set [2] has as its target T2, Cytochrome P450 11A1 (desmolase, cholesterol side-chain cleavage enzyme) (Bos taurus, UniProt P00189).
T2 sequence (P00189 whole entry): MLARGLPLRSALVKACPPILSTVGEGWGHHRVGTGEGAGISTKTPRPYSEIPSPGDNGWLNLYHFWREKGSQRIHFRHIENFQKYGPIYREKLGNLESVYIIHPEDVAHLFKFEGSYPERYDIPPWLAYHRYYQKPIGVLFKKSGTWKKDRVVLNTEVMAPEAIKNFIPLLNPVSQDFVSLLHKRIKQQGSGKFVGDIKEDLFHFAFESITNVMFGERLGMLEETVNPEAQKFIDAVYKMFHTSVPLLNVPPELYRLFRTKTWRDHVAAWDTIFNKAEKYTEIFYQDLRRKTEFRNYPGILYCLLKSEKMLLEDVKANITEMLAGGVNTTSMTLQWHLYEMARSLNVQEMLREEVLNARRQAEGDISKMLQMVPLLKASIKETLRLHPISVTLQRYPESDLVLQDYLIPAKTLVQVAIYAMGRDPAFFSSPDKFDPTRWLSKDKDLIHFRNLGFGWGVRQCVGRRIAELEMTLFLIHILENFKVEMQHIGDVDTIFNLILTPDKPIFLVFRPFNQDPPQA
Kind of data set: Inhibition of bovine adrenal desmolase cytochrome P450 11A1 at 50 ug/mL. As to conditions: cattle; call rule not given here.

Data set [3] deals with T3, Cholesterol side-chain cleavage enzyme, mitochondrial (Bos taurus, UniProt P00189).
T3 sequence (P00189 whole entry): T2 sequence (P00189 whole entry)
The data set can be described thus: Inhibition of bovine adrenal desmolase at 50 ug/mL; None. The following applies: cattle; at 50 µg/mL.

The target in data set [4] is T1, Aromatase. Kind of data set: Inhibition of Cytochrome P450 19A1 at 20 ug/mL; None. The following applies: at 20 µg/mL.

The inhibition is the share of the control response that was lost under treatment. `CCC1(c2ccncc2)CCC(=O)N(N)C1=O` (configuration not stated): in data set [1], the inhibition at 20 µg/mL was determined as 27%. Also, in data set [2], the inhibition at 50 ug/mL was determined as 38%.

As for `CCC1(c2ccncc2)CCC(=O)NC1=O` (configuration not stated) [ROGLETIMIDE], the Inhibition entry in data set [3] is on record as “Not Active”.

Turning to `CCC1(c2cc[n+]([O-])cc2)CCC(=O)NC1=O` (configuration not stated), the Inhibition result in data set [4] and in data set [3] was “Not Active” each time.

On to `CCC1(c2c(F)c(F)nc(F)c2F)CCC(=O)NC1=O` (configuration not stated), for which 20 µg/mL produced 25% inhibition in data set [1]. The Inhibition result in data set [3] is reported as “Not Active”.
